Results as given in patent US20250108048A1, “STING AGONIST COMPOUNDS AND CONJUGATES” (SUTRO BIOPHARMA, INC., priority 2023, published 2025).

Key:
hSTING H232 [1] = biological target: T1, hSTING H232 (Homo sapiens, UniProt Q86WV6); experiment: THP1-Dual KI-hSTING-H232 reporter assay (IRF pathway, secreted Lucia luciferase); type: cell-based; design: host or cells: THP1-Dual KI-hSTING-H232 (from THP1-Dual KO-STING); settings: THP1-Dual KI-hSTING-H232 cells, 24 hours; read-out: Reporter assay EC50 (nM) THP-1-H232
Method: (§1) The activities of the STING agonists to activate human or mouse STING pathways were evaluated in THP-1-Dual™, THP1-Dual™ KI-hSTING-R232, THP1-Dual™ KI-hSTING-H232 Cells and THP1-Dual™ KI-mSTING Cells. THP-1-Dual™ cells contains hSTING-HAQ haplotype and can be used to evaluate the activity of STING agonists by monitoring the activation of NF-κB pathway and the […] (IFN regulatory factor) pathways. THP1-Dual™ KO-STING cells were generated from THP1-Dual™ cells by stable knockout of the endogenous HAQ STING gene. THP1-Dual™ KI-hSTING-R232 cells, THP1-Dual™ KI-hSTING-H232 cells and THP1-Dual™ KI-mSTING cells were generated by transfecting THP1-Dual™ KO-STING cells with hSTING-R232 or hSTING-H232 or mSTING. Stimulating these reporter cells with a STING agonist activates TRF pathway and induces the production of a secreted Lucia luciferase in the cell culture medium, which can be determined using QUANTI-Luc™ reagent.
(§2) THP-1-Dual™, THP1-Dual™ KI-hSTING-R232, THP1-Dual™ KI-hSTING-H232 and THP1-Dual™ KI-mSTING reporter cells were purchased from Invivogen and maintained in manufacture recommended culture medium with required supplemental antibiotics. On the day of assay, the cells were harvested with Accutase and counted by the Vi-CELL Cell Viability Analyzers. Cells were resuspended in HEK blue detection medium and a total of 10000 cells were seeded in each well of a 384-well flat bottom plate. […] After incubation at 37° C. in a CO2 incubator for 24 hours, 20 μl of cell culture medium per well was transferred into a 384-well white (opaque) plate. 50 μl of QUANTI-Luc™ assay solution was then added to each well and the plate was immediately transferred to an ENVISION® plate reader to measure luminescence (Perkin-Elmer). Relative luminescence readings were converted to fold change of signal using untreated cells as controls. Data was fitted with non-linear regression analysis, using log (agonist) vs. response, variable slope, 4-parameter fit equation using GraphPad Prism. Data was expressed as fold change in signal vs. dose of STING agonist in nM with error bars indicating the Standard Deviation (SD) of the quadruplicates. There result was reported in Table 2 as EC50 (the midpoint of the curve, or concentration at which […] of the maximum effect was observed).

hSTING H232 [2] = biological target: T1, hSTING H232; experiment: Surface plasmon resonance, hSTING H232; type: binding; settings: read-out: hSTING H232 SPR (Kd)
mSTING [3] = biological target: T2, mSTING (Mus musculus, UniProt Q3TBT3); experiment: 293-mSTING reporter assay; type: cell-based
T2 sequence (Q3TBT3 1-378): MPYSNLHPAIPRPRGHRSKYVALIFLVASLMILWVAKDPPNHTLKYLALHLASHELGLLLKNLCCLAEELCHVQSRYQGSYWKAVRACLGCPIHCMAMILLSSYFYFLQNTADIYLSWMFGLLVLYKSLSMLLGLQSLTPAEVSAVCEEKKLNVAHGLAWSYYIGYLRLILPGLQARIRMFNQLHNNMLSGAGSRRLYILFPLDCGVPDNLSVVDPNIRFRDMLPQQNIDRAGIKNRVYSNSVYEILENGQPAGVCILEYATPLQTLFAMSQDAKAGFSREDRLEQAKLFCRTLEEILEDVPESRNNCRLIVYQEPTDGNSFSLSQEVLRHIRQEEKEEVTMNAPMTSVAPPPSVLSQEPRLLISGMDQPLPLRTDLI

hSTING WT = hSTING WT (Homo sapiens, UniProt Q86WV6); experiment: Surface plasmon resonance, hSTING WT; type: binding; settings: read-out: hSTING WT SPR (Kd)
hSTING-HAQ haplotype = biological target: T3, hSTING-HAQ haplotype (Homo sapiens, UniProt Q86WV6, G230A/H232R/R293Q/R71H); experiment: THP-1-Dual reporter assay (endogenous hSTING-HAQ); type: cell-based; settings: THP-1-Dual cells (hSTING-HAQ), 24 hours
T3 construct: host or cells: THP-1-Dual
Method: as §1, §2

hSTING AQ = hSTING AQ (Homo sapiens, UniProt Q86WV6, G230A/H232R/R293Q); experiment: Surface plasmon resonance, hSTING AQ; type: binding; settings: read-out: hSTING AQ SPR (Kd)
hSTING-R232 = biological target: T4, hSTING-R232 (Homo sapiens, UniProt Q86WV6, H232R); experiment: THP1-Dual KI-hSTING-R232 reporter assay (IRF pathway, secreted Lucia luciferase); type: cell-based; settings: THP1-Dual KI-hSTING-R232 cells, 24 hours; read-out: Reporter assay EC50 (nM) THP-1-R232
T4 construct: host or cells: THP1-Dual KI-hSTING-R232 (from THP1-Dual KO-STING)
Method: as §1, §2

mSTING [4] = biological target: T2, mSTING; experiment: THP1-Dual KI-mSTING reporter assay; type: cell-based; design: host or cells: THP1-Dual KI-mSTING (from THP1-Dual KO-STING); settings: THP1-Dual KI-mSTING cells, 24 hours; read-out: Reporter assay EC50 (nM) THP-1 mSTING
Method: as §1
THP-1-Dual™, THP1-Dual™ KI-hSTING-R232, THP1-Dual™ KI-hSTING-H232 and THP1-Dual™ KI-mSTING reporter cells were purchased from Invivogen and maintained in manufacture recommended culture medium with required supplemental antibiotics. On the day of assay, the cells were harvested with Accutase and counted by the Vi-CELL Cell Viability Analyzers. Cells were resuspended in HEK blue detection medium and a total of 10000 cells were seeded in each well of a 384-well flat bottom plate. Serial dilutions of STING agonists free drugs (1:3 serial dilution starting from 5 uM) was added into treatment wells. After incubation at 37° C. in a CO2 incubator for 24 hours, 20 μl of cell culture medium per well was transferred into a 384-well white (opaque) plate. 50 μl of QUANTI-Luc™ assay solution was then added to each well and the plate was immediately transferred to an ENVISION® plate reader to measure luminescence (Perkin-Elmer). Relative luminescence readings were converted to fold change of signal using untreated cells as controls. Data was fitted with non-linear regression analysis, using log (agonist) vs. response, variable slope, 4-parameter fit equation using GraphPad Prism. Data was expressed as fold change in signal vs. dose of STING agonist in nM with error bars indicating the Standard Deviation (SD) of the quadruplicates. There result was reported in Table 2 as EC50 (the midpoint of the curve, or concentration at which […] of the maximum effect was observed).

Chain of hSTING AQ (Q86WV6 whole entry G230A/H232R/R293Q): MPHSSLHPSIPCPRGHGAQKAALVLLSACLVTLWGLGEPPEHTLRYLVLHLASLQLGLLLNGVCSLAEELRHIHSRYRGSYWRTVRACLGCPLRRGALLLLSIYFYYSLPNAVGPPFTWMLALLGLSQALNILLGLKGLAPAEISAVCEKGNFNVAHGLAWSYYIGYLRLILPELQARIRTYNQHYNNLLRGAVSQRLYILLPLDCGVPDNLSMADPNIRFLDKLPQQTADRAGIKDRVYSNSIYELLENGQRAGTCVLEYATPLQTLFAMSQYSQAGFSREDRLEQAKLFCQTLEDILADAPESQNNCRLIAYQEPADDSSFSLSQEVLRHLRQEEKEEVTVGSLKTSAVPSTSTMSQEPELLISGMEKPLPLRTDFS
T1 sequence (Q86WV6 whole entry): as the sequence (Q86WV6 whole entry G230A/H232R/R293Q) above, with A230G, R232H, Q293R counted along it
Chain of hSTING WT (Q86WV6 whole entry H232R): as the sequence (Q86WV6 whole entry G230A/H232R/R293Q) above, with A230G, Q293R counted along it
T4 sequence (Q86WV6 whole entry H232R): as the sequence (Q86WV6 whole entry G230A/H232R/R293Q) above, with A230G, Q293R counted along it
T3 sequence (Q86WV6 whole entry R71H/G230A/H232R/R293Q): as the sequence (Q86WV6 whole entry G230A/H232R/R293Q) above, with R71H counted along it

Row | SMILES | EC50 (hSTING H232 [1]) [nM] | Kd (hSTING H232 [2]) [nM] | EC50 (mSTING [3]) [nM] | Kd (hSTING WT) [nM] | EC50 (hSTING-HAQ haplotype) [nM] | Kd (hSTING AQ) [nM] | EC50 (hSTING-R232) [nM] | EC50 (mSTING [4]) [nM]
1 | CCn1nc(C)cc1C(=O)Nc1nc2cc(C(N)=O)ccc2n1C/C=C/Cn1c(NC(=O)c2cc(C)nn2CC)nc2cc(C(N)=O)cc(OCCCN3CC4(C3)CN(C(=O)CON=C(C)c3ccc(C[C@H](N)C(=O)O)cc3)CCO4)c21 (racemic) [LP-1-4, rac-(2S)-2-amino-3-[4-[N-[2-[2-[3-[6-carbamoyl-2-[(2-ethyl-5-methyl-pyrazole-3-carbonyl)amino]-3-[rac-(E)-4-[5-carbamoyl-2-[(2-ethyl-5-methyl-pyrazole-3-carbonyl)amino]benzimidazol-1-yl]but-2-enyl]benzimidazol-4-yl]oxypropyl]-5-oxa-2,8-diazaspiro[3.5]nonan-8-yl]-2-oxo-ethoxy]-C-methyl-carbonimidoyl]phenyl]propanoic acid] | > 150 | ≤ 20 | > 150 | ≤ 20 | > 150 | ≤ 20 | > 150 | 
2 | CCn1nc(C)cc1C(=O)Nc1nc2cc(C(N)=O)ccc2n1C/C=C/Cn1c(NC(=O)c2cc(C)nn2CC)nc2cc(C(N)=O)cc(OCCCN3CC4(C3)CN(C(=O)[C@@H](N)CC(C)C)CCO4)c21 [Compound 2, (E)-7-(3-(8-(L-leucyl)-5-oxa-2,8-diazaspiro[3.5]nonan-2-yl)propoxy)-1-(4-(5-carbamoyl-2-(1-ethyl-3-methyl-1H-pyrazole-5-carboxamido)-1H-benzo[d]imidazol-1-yl)but-2-en-1-yl)-2-(1-ethyl-3-methyl-1H-pyrazole-5-carboxamido)-1H-benzo[d]imidazole-5-carboxamide] | ≤ 50 | ≤ 20 | > 150 | ≤ 20 | 50 to 150 | ≤ 20 | ≤ 50 | 
3 | CCn1nc(C)cc1C(=O)Nc1nc2cc(C(N)=O)ccc2n1C/C=C/Cn1c(NC(=O)c2cc(C)nn2CC)nc2cc(C(N)=O)cc(OCCCN3CC4(C3)CN(C(=O)CN)CCO4)c21 [Compound 3] | 50 to 150 | ≤ 20 | > 150 | ≤ 20 | 50 to 150 | ≤ 20 | 50 to 150 | 
4 | CCn1nc(C)cc1C(=O)Nc1nc2cc(C(N)=O)cc(OC)c2n1C/C=C/Cn1c(NC(=O)c2cc(C)nn2CC)nc2cc(C(N)=O)cc(OCCCN3CC4(CNCCO4)C3)c21 [Compound 6] | ≤ 50 | ≤ 20 | 50 to 150 | ≤ 20 | ≤ 50 | ≤ 20 | ≤ 50 | 
5 | CCn1nc(C)cc1C(=O)Nc1nc2cc(C(N)=O)cnc2n1CCCCn1c(NC(=O)c2cc(C)nn2CC)nc2cc(C(N)=O)cc(OCCCN3CCC(c4nnc5n4CCNC5)CC3)c21 [Compound 22] | > 150 | ≤ 20 |  | ≤ 20 | > 150 | ≤ 20 | > 150 | > 150
6 | CCn1nc(C)cc1C(=O)Nc1nc2cc(C(N)=O)ccc2n1C/C=C/Cn1c(NC(=O)c2cc(C)nn2CC)nc2cc(C(N)=O)cc(OCCCN3CC4(C3)CN(C(=O)[C@H](CC(C)C)NC(=O)CCCCCO/N=C(\C)c3ccc(C[C@H](N)C(=O)O)cc3)CCO4)c21 [LP-2-3] | 50 to 150 | ≤ 20 |  | ≤ 20 | > 150 | ≤ 20 | 50 to 150 | > 150
7 | CCn1nc(C)cc1C(=O)Nc1nc2cc(C(N)=O)cc(OC)c2n1C/C=C/Cn1c(NC(=O)c2cc(C)nn2CC)nc2cc(C(N)=O)cc(OCCCN3CC4(C3)CN(C(=O)CCCCCON)CCO4)c21 [LP-6-1] | ≤ 50 | ≤ 20 |  | ≤ 20 | ≤ 50 | ≤ 20 | ≤ 50 | ≤ 50
8 | CCc1nc(C)oc1C(=O)Nc1nc2cc(C(N)=O)cnc2n1C/C=C/Cn1c(NC(=O)c2oc(C)nc2CC)nc2cc(C(N)=O)cc(OCCCO)c21 [Reference Compd B, reference compound] | ≤ 50 | ≤ 20 |  | ≤ 20 | > 150 | ≤ 20 | ≤ 50 | ≤ 50
